Data published in patent US20110105623A1 (Biogenic Innovations, LLC, priority 2009, published 2011).

Legend:
[1] = system: Streptococcus Pneumonia (#10341); assay: Bacterial viability by bioluminescent ATP assay
[2] = system: Streptococcus Pyogenes (Lancefield group A, #10096); assay: Bacterial viability by bioluminescent ATP assay

Row | Molecule | IC50 [1] [%] | reduces viability by ([1]; 5% DMSO) | IC50 [2] | Viability of S. pyogenes ([2]; DMSO Concentration 0.31) [%] | Viability of S. pyogenes ([2]; DMSO Concentration 0.63) [%] | Viability of S. pyogenes ([2]; DMSO Concentration 1.25) [%] | Viability of S. pyogenes ([2]; DMSO Concentration 2.50) [%] | S. pyogenes viability ([2]; DMSO […], MSM 0%) [%] | S. pneumonia viability (%) ([1]; 25 μg/L penicillin alone) | reduced viability by ([1]; 25 μg/L penicillin alone) | S. pneumonia viability (%) ([1]; 50 μg/L Penicillin alone) | S. pneumonia viability (%) ([1]; 100 μg/L Penicillin alone) | S. pneumonia viability ([1]; Penicillin 100 μg/L, MSM 0%) [%]
1 | C[S+](C)[O-] [DMSO, Dimethyl sulfoxide] | 12.86 | approximately 25% | 9.07% | 100 | 100 | 100 | 100 | 100 |  |  |  |  | 
2 | Penicillin |  |  | 15.25 µg/L |  |  |  |  |  | 79.82 | approximately 21% | 42.70 | 40.93 | 40.93
